Columns and labels:
wild type mice = assay: ALS-like phenotype in wild type mice given weekly i.p. BMAA (body weight, rotarod, open field, catwalk); type: in vivo, mouse; details: BMAA 500 mg/kg weekly i.p. for six weeks, FIGS. 5A-5D
Method: In another experiment, wild type mice were administered weekly i.p. injections of BMAA (500 mg/kg) or PBS (control) for six weeks starting at week 1 (FIG. 5A, top). Body weight measurements were recorded each week up to 6 weeks, week 14 and week 18. Analysis of motor impairment via rotarod, open field locomotor, and catwalk testing (as described above) were recorded at the start of the experiment (week 0, 10-weeks old), every other week up to 6 weeks, week 14 and week 18.

[1] = system: cultured wild type motor neurons; assay: Survival of cultured embryonic stem cell-derived wild type motor neurons treated with BMAA (cell counts, trypan blue); type: cell-based, mouse; details: wild type motor neurons in ESMN with BMAA at 0.1-100 μM; FIG. 4
Method: Briefly, mouse embryonic stem cells are cultured and differentiated into motor neurons, during an eight-day period. The first day, previously frozen mouse embryonic stem cells are thawed and added to a 15 mL falcon tube with five mL of embryonic stem cell medium (ES medium: DMEM with 15% FBS, 1% pen/strep., 1% glutamine, 1% non-essential amino acids, 1% nucleosides, 0.1% β-mercaptoethanol, 1% sodium-pyruvate, and LIF at 10000 unit/mL), The tube is then centrifuged for five minutes at 800 rpm. The supernatant is aspirated and the cells suspended in 10 mL of ES medium. The cells are then plated on a T75 flask that is coated with 10 mL of 0.1% gelatin and incubated for 30 minutes at 37° C. to facilitate attachment to the flask bottom. The cells are then incubated overnight. The following day the medium exchanged with fresh medium for survival.
The following day medium is aspirated from the flask. The flask is washed with 10 mL of PBS, and then 5 mL of trypsin is added to detach the cells from the bottom of the flask. The cells are incubated for five minutes at 37° C. Detachment is confirmed by checking the flask under a microscope. […]
After three days embryoid bodies (EB) that form are dissociated. […] The cells are then counted using a Countess automatic cell counter (Life Technologies) and 0.5 to 1 million cells are plated with 2 mL ESMN medium per well in each six well plate. […]

C9orf72−/− mice = assay: ALS-like phenotype in aged C9orf72−/− mice given weekly i.p. BMAA (body weight, motor scores, rotarod, open field, catwalk); type: in vivo, mouse; details: 32-week old C9orf72−/− mice, BMAA 500 mg/kg weekly i.p. for six weeks; FIGS. 6A-6E
Method: In another experiment, aged (i.e., 32-week old) wild type and C9orf72^−/− mice were administered weekly i.p. injections of BMAA (500 mg/kg) or PBS (control) for six weeks. Body weight measurements were recorded each week up to 38 weeks starting at day zero (i.e., 32 weeks). Analysis of motor impairment via rotarod, open field locomotor, and catwalk testing (as described above) were also recorded at the start of the experiment (week 0, […]) and every other week up to 38 weeks. Table 6 sets forth the scoring methodology related to motor impairment, tremor and rigidity of animals during testing.

C9orf72−/− motor neurons = assay: Oxidative stress (ROS, CellROX Green) of cultured C9orf72−/− motor neurons exposed to BMAA; type: cell-based, mouse; details: 100 mM BMAA, measured at days 1 and 7, FIG. 7
Method: In another experiment, motor neurons from C9orfF72^−/− mice were cultured as described above (see also FIG. 7) and treated with antisense oligonucleotides that selectively target sense strand repeat-containing RNAs and reduce sense-oriented RNA foci without affecting overall C9orf72 expression. Treatment was followed by addition of 100 mM BMAA. Survival and oxidative stress of cultured motor neurons were measured at days 1 and 7. Briefly, oxidative stress of plated embryonic stem cell-derived motor neurons (described above) was assessed by measuring the Reactive Oxygen Species (ROS) levels in the cells using Life Technologies' CellROX Oxidative Stress Green reagent at a final concentration of 5 μM and incubating for 30 minutes at 37° C. After incubation, cells were washed three times with PBS and fluorescence was measured using a standard microplate fluorometry.

SMILES: CNC[C@H](N)C(=O)O [BMAA, β-Methylamino-L-alanine]
- induction of ALS-like phenotype (wild type mice): did not induce an ALS-like phenotype
- survival of cultured motor neurons (percentage of live neurons to control) [1]: kills cultured wild type motor neurons in a dose-dependent manner
- effect on ALS-like motor phenotype (C9orf72−/− mice): mildly exacerbates
- effect on increased inactivity and gait abnormalities (C9orf72−/− mice): does not affect
- oxidative stress (Reactive Oxygen Species levels) (C9orf72−/− motor neurons): increased oxidative stress

From patent US11547101B2, “Non-human animals having a disruption in a C9ORF72 locus” (Regeneron Pharmaceuticals, Inc., priority 2015, dated 2023)
